The source made the active and inactive calls.
Experiments:
cells [1] = type: functional, cell-based
cells [2] = type: functional, cell-based; remark: listed apart in the source
Cytochrome P450 1A2 = target: T1, Cytochrome P450 1A2 (Homo sapiens, UniProt P05177);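 note: PubChem cytochrome P450 panel assay, CYP1A2 panel member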
T1 sequence (P05177 whole entry): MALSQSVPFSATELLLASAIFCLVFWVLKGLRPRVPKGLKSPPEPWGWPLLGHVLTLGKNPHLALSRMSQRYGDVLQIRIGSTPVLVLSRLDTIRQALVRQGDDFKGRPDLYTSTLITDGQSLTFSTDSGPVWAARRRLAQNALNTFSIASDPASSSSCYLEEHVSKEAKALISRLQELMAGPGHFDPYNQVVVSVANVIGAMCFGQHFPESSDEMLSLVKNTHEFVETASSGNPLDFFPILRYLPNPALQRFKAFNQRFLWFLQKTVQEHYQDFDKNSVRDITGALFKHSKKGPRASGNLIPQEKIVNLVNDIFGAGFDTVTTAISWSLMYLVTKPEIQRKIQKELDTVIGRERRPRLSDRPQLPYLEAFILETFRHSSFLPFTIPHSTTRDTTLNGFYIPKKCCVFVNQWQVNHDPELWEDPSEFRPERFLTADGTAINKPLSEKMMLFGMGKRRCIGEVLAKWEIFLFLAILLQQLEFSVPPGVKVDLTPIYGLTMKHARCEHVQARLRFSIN

Cytochrome P450 2C9 = Cytochrome P450 2C9 (Homo sapiens, UniProt P11712)
Sequence of Cytochrome P450 2C9 (P11712 whole entry): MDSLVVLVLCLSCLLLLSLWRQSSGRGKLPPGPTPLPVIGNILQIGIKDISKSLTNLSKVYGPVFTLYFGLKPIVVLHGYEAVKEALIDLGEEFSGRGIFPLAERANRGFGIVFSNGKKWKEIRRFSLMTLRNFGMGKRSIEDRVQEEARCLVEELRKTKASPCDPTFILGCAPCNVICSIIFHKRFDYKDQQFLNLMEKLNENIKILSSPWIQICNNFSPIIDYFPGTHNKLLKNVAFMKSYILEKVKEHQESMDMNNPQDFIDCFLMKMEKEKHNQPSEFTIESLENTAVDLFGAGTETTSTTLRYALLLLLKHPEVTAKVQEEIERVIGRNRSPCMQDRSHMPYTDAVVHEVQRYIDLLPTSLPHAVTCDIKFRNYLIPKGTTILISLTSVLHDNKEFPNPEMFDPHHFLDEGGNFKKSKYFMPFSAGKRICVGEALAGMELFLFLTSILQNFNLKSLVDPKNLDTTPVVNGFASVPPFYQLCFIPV

[3] = Luminescence Cell-Based Dose Confirmation HTS to Identify Inhibitors of Platelet Dense Granule Release. [Related pubchem assays: 1663 (Primary HTS), 1678 (Summary of Project)]; type: functional
[4] = target: Luciferin 4-monooxygenase (Photinus pyralis, UniProt P08659); assay: firefly luciferase enzyme inhibitors, dose response, biochemical, luminescence (AID 1891)
Sequence of Luciferin 4-monooxygenase (P08659 whole entry): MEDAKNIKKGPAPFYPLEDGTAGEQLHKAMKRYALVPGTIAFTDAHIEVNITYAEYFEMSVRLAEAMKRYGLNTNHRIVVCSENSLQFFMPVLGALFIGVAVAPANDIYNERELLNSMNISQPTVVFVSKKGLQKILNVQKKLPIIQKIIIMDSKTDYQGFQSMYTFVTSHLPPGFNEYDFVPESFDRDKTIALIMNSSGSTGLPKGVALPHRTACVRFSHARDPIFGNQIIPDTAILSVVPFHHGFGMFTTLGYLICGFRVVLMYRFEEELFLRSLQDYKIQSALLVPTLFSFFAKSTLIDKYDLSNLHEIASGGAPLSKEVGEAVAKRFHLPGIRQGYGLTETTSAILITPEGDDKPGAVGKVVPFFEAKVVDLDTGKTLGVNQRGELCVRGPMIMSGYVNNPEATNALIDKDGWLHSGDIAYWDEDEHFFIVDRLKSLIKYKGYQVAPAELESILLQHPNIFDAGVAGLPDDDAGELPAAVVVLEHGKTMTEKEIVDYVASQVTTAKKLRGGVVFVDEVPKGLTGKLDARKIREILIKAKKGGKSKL

Cytochrome P450 2C19 = Cytochrome P450 2C19 (Homo sapiens, UniProt P33261); assay: Cytochrome panel assay with activity outcomes. Panel member name: p450-cyp2c19 Compounds with AC50 equal or less than 10 uM are considered active; type: functional; conditions: read-out: AC50
Sequence of Cytochrome P450 2C19 (P33261 whole entry): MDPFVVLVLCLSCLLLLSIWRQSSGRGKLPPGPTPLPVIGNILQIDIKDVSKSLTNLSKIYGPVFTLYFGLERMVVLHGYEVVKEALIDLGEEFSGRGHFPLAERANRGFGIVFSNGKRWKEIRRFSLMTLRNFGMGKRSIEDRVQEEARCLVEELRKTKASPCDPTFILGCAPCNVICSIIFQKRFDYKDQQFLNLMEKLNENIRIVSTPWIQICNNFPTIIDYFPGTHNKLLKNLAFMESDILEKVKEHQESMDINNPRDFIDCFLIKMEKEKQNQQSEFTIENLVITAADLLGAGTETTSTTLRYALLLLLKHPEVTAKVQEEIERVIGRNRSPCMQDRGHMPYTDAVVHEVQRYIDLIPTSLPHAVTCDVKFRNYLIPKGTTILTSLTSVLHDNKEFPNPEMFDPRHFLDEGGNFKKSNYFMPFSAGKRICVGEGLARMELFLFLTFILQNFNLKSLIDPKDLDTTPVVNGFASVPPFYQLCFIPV

[5] = Luminescence Cell-Based Dose Response HTS to Identify Inhibitors of 5'UTR Stem-Loop Driven Prion Protein mRNA Translation in H4 Neuroglioblastoma Cells. [Related pubchem assays: 1827 (Project Summary), 1813 (Primary HTS)]; type: functional
[6] = inhibitors of firefly luciferase expression or activity, dose response, H4 neuroglioma cells, luminescence (AID 1990); type: functional, cell-based
[7] = target: T2, Heat shock factor protein 1 (Mus musculus, UniProt P38532); assay: inhibition of MG132-induced HSE-luciferase signal, confirmation, cell-based, NIH3T3, luminescence, dose retest (AID 2382); type: functional;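 note: NIH3T3 fibroblasts with HSF1-driven luciferase reporter stressed by proteasome inhibitor MG132; luminescence from HSF1-driven luciferase expression after 8 hours of MG132 stress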
T2 sequence (P38532 whole entry): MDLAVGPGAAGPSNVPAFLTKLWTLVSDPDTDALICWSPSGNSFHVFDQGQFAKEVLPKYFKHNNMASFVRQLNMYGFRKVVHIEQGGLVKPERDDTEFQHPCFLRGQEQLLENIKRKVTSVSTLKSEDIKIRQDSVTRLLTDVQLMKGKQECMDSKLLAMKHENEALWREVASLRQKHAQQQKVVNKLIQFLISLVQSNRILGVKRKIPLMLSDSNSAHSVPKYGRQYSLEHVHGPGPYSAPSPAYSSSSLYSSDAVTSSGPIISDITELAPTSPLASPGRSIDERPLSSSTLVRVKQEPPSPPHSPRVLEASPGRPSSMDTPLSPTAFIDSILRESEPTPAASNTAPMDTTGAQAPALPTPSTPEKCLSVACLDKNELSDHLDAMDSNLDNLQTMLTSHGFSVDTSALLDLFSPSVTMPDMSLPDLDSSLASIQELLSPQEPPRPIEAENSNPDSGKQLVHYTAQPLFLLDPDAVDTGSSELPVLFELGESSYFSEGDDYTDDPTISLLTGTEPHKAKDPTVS

[8] = inhibitors of SNCA 5'UTR-driven reporter translation, confirmation, H4 neuroglioma cells, luminescence (AID 1988); type: functional, cell-based
Nonstructural protein 1 = Nonstructural protein 1 (Influenza A virus, UniProt Q194T2); type: functional, Influenza A virus (A/California/07/2009(H1N1))
Sequence of Nonstructural protein 1 (Q194T2 whole entry): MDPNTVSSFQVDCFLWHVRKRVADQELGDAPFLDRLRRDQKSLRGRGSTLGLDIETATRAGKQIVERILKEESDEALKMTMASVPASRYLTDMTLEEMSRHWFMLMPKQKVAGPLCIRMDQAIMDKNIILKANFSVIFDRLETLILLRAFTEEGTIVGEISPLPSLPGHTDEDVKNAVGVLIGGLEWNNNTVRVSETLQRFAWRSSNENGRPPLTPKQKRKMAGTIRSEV

Cytochrome P450 3A4 = Cytochrome P450 3A4 (Homo sapiens, UniProt P08684);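 note: CYP3A4 tested as one member of a cytochrome P450 panel screen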
Sequence of Cytochrome P450 3A4 (P08684 whole entry): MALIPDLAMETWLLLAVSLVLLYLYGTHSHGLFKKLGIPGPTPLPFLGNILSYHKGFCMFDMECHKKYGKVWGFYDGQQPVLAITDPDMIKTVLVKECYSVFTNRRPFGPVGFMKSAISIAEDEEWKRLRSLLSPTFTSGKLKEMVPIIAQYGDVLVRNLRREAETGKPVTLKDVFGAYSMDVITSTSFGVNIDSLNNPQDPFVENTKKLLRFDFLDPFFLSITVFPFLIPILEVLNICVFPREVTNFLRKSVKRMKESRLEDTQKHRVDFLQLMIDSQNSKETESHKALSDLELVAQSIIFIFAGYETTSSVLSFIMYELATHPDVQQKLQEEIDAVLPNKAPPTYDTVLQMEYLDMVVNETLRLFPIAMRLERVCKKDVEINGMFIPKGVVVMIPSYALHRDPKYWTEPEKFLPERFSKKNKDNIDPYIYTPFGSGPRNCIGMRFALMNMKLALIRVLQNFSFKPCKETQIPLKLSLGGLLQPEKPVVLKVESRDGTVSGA

cells [9] = type: functional
Cytochrome P450 2D6 = Cytochrome P450 2D6 (Homo sapiens, UniProt P10635);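 note: CYP2D6 member of a cytochrome P450 panel assay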
Sequence of Cytochrome P450 2D6 (P10635 whole entry): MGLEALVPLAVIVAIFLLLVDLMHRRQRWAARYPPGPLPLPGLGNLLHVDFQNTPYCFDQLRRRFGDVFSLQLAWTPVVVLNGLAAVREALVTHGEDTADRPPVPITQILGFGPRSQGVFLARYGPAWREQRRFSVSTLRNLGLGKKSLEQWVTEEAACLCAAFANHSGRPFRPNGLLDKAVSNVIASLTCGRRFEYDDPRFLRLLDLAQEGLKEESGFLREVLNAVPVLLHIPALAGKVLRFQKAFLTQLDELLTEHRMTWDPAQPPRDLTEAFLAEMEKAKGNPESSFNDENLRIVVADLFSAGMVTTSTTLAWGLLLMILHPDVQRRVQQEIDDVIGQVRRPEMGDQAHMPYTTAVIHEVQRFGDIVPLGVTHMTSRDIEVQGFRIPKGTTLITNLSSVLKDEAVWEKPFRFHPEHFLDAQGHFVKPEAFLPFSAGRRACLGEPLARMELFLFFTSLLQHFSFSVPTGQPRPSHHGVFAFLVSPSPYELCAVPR

INS1 = assay: beta cell apoptosis inhibitors, cytokine rescue, dose response, luminescence, retest (AID 449756); type: functional, cell-based; conditions: Rattus norvegicus, INS1;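 note: cell death triggered by IL-1 beta plus TNF-alpha plus IFN-gamma mixture; protective hits raise ATP signal compared with cytokine alone wells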
[10] = control 3'UTR Renilla luciferase suppression, dose response, counter-screen for Shn3 inhibitor project, cell-based, Clone20-Shn3RL, cherry-picked (AID 624133); type: functional
[11] = HEp-2 cell cytotoxicity, dose response, cytotoxicity control for RSV inhibitor project, HTS (AID 2410); type: functional; conditions: human respiratory syncytial virus
[12] = target: T2, Heat shock factor protein 1; assay: HSF1 potentiators in luciferase reporter cells, confirmation, cell-based, NIH3T3, luminescence, dose retest (AID 435004); type: functional;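 note: stress induced by proteasome inhibitor MG132 added 30 min after compound; luciferase reporter driven by HSF1 response element in NIH3T3 cells; actives raise luminescence as potentiators of the MG132 stress response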

Cc1ccc(-c2cc(C(=O)Nc3cccnc3)[nH]n2)c(O)c1C
EC50 (cells [1]): 7.01 µM (active)
EC50 (cells [2]): > 350 µM (not active)

COCCn1c(=O)c(-c2cccc(C#N)c2)nc2cnc(N3CCN(C)CC3)nc21
AC50 (Cytochrome P450 1A2): 15.8 µM (inconclusive)
AC50 (Cytochrome P450 2C9): 3.98 µM (inconclusive)

COc1ccc(/C=C2\CCc3c2nc2ccccc2c3C(=O)O)cc1OC
EC50 [3]: 73.5 µM (active)
EC50 [4]: 6.42 µM (active)

COc1ccc(Oc2ncc3nc(-c4ccc(F)cc4)c(=O)n(Cc4cccs4)c3n2)cc1
AC50 (Cytochrome P450 1A2): 5.01 µM (inconclusive)
AC50 (Cytochrome P450 2C9): 3.16 µM (inconclusive)

Cc1noc(COc2ccc(OCc3nc(C)no3)cc2)n1
AC50 (Cytochrome P450 2C19): 17.8 µM (inconclusive)
AC50 (Cytochrome P450 2C9): 39.8 µM (inconclusive)

COc1ccc(CN2CCN(S(=O)(=O)c3ccccc3)CC2)cc1Br
EC50 [5]: > 120 µM (not active)
EC50 [6]: > 120 µM (not active)
EC50 [7]: > 195 µM (not active)
EC50 [8]: > 120 µM (not active)

Cc1ccc(CNC(=O)c2cnc3ccccc3n2)cc1
EC50 [3]: > 112 µM (not active)
EC50 [4]: > 112 µM (not active)

Cc1ccc(C(OC(=O)c2ccco2)C(=O)NC2CCCCC2)cc1 (stereo unspecified)
AC50 (Cytochrome P450 2C9): 39.8 µM (inconclusive)

CC(=O)c1ccc(NC(=O)Nc2ccc([N+](=O)[O-])cc2C)cc1
EC50 [3]: > 112 µM (not active)
EC50 [4]: > 112 µM (not active)

Cc1onc(-c2c(F)cccc2Cl)c1C(=O)NCC1COc2ccccc2O1 (stereo unspecified)
EC50 [3]: > 112 µM (not active)
EC50 [4]: > 112 µM (not active)

CC(C)CCNC(=O)Cn1cc2c(n1)CCCCC2
EC50 [7]: > 195 µM (not active)

CCS(=O)(=O)c1ccc2c(c1)N(S(C)(=O)=O)CC(C(=O)NCCOC)O2 (stereo unspecified)
AC50 (Cytochrome P450 2C9): 35.5 µM (inconclusive)

COc1cccc(N2C(=O)N(c3ccccc3)C3CS(=O)(=O)CC32)c1 (stereo unspecified)
EC50 [7]: > 195 µM (not active)

COc1ccc(N2CCN(CCCNC(=O)c3cc4sccc4n3C)CC2)cc1
IC50 (Nonstructural protein 1): 39.4 µM (active)

Cc1cccc(C)c1NC(=O)C[S+]([O-])CC(=O)NCCCc1ccccc1 (stereo unspecified)
AC50 (Cytochrome P450 2C9): 22.4 µM (inconclusive)
AC50 (Cytochrome P450 3A4): 14.1 µM (inconclusive)

CCc1ccccc1N(CC(=O)N/N=C/c1ccc(OC(=O)OC)c(OC)c1)S(C)(=O)=O
EC50 [3]: 43.7 µM (active)
EC50 [4]: > 112 µM (not active)

Cc1cc(C)c(C(=O)N2CCCC(N3CCN(c4cccc(C(F)(F)F)c4)CC3)C2)o1 (stereo unspecified)
EC50 (cells [1]): > 350 µM (not active)
EC50 (cells [2]): > 350 µM (not active)

CCC(Cc1ccccc1)NS(=O)(=O)c1c(C)nc2sccn2c1=O (stereo unspecified)
EC50 [3]: > 112 µM (not active)
EC50 [4]: > 112 µM (not active)

O=C(COC(=O)c1ccccc1Cl)NCCC1=CCCCC1
IC50 (cells [9]): 29.9 µM (active)

O=C(c1ccco1)N1CCC[C@@]2(CCN(Cc3nccs3)C2)C1
AC50 (Cytochrome P450 2C19): 39.8 µM (inconclusive)
AC50 (Cytochrome P450 3A4): 7.94 µM (inconclusive)
AC50 (Cytochrome P450 2D6): 10 µM (inconclusive)

O=c1c(=Nc2ccccc2O)c(=O)c2ccccc12
IC50 (cells [9]): 3.81 µM (active)

COC(=O)[C@@]1(Cc2ccc(F)cc2)[C@H]2c3cc(C(=O)N4CCCC4)n(Cc4ccc(C)o4)c3C[C@H]2CN1C(=O)c1ccccc1
AC50 (Cytochrome P450 1A2): 10 µM (inconclusive)
AC50 (Cytochrome P450 2D6): 39.8 µM (inconclusive)

OCC[C@@H]1C[C@@H](O)[C@H](O)[C@@]2(Cc3ccccc3CO2)O1
EC50 [7]: > 195 µM (not active)

CC1CCCN(C(=O)c2ccc3c(c2NCCO)C(=O)c2ccccc2C3=O)C1 (stereo unspecified)
IC50 (Nonstructural protein 1): 22 µM (active)

O=C1/C(=C\c2ccc(-c3ccccc3[N+](=O)[O-])o2)C(c2ccccc2)=NN1c1ccccc1
IC50 (Nonstructural protein 1): 21.3 µM (active)

Cc1cc2nc(-c3ccc(NC(=O)c4cccnc4)cc3)oc2cc1C
AC50 (INS1): 3.87 µM (active)
EC50 [3]: > 112 µM (not active)
EC50 [4]: > 112 µM (not active)

Cc1cccc(C(=O)Nc2nnc(-c3cccnc3)o2)c1
IC50 (cells [9]): 9.52 µM (active)

CC(C)(C)N(Cc1ccccc1)C(=O)COC(=O)CCc1c[nH]c2ccccc12
AC50 [10]: 25.9 µM (active)

CC1CN=C(/C=C(\O)c2ccc(Br)cc2)C(=O)N1 (stereo unspecified)
EC50 [5]: 11.6 µM (inconclusive)
EC50 (cells [1]): 35.6 µM (active)
EC50 (cells [2]): > 350 µM (not active)

O/C(=C(\C([S-])=Nc1cccc2ccccc12)[n+]1ccccc1)c1cccs1
EC50 (cells [1]): > 350 µM (not active)
EC50 (cells [2]): > 350 µM (not active)

Cc1ccc(N2C(=O)/C(=C/N3CCN(C(=O)c4ccco4)CC3)C(=O)NC2=S)cc1C
AC50 (Cytochrome P450 2C19): 39.8 µM (inconclusive)
AC50 (Cytochrome P450 2C9): 20 µM (inconclusive)
AC50 (Cytochrome P450 3A4): 25.1 µM (inconclusive)

COc1ccc(-n2c(-c3cccc(OC)c3)nc(=S)c3c2CCCC3)cc1
EC50 [7]: > 195 µM (not active)

Cc1ccc([N+](=O)[O-])cc1NC(=O)CSc1n[nH]c(-c2cccnc2)n1
EC50 [7]: > 195 µM (not active)

Cc1cc(C(=O)NCc2ccccc2)no1
AC50 (Cytochrome P450 2C19): 28.2 µM (inconclusive)
AC50 (Cytochrome P450 1A2): 0.398 µM (inconclusive)
AC50 (Cytochrome P450 2D6): 20 µM (inconclusive)

O=C(N/N=C/c1ccc2c(c1)OCO2)/C(=C/c1ccc2c(c1)OCO2)NC(=O)c1ccccc1
AC50 (Cytochrome P450 2C9): 12.6 µM (inconclusive)

CCn1c(N2CCC(Cc3ccccc3)CC2)nc2c1c(=O)[nH]c(=O)n2C
EC50 (cells [1]): > 350 µM (not active)
EC50 (cells [2]): > 350 µM (not active)

CCCC(C)NC(=O)CN1C(=O)NC2(CCc3ccccc32)C1=O (stereo unspecified)
EC50 (cells [1]): > 350 µM (not active)
EC50 (cells [2]): > 350 µM (not active)

CCOC(=O)N1CCC(Nc2ncnc3c2cnn3-c2ccc(Cl)cc2)CC1
EC50 [7]: 89.4 µM (active)

O=C(CSc1nnnn1C1CCCC1)Nc1ccc(F)cc1
AC50 (Cytochrome P450 1A2): 25.1 µM (inconclusive)
AC50 (Cytochrome P450 2C9): 31.6 µM (inconclusive)

C/C(=N\Nc1nc(-c2ccccc2)cs1)c1cccs1
EC50 [7]: > 195 µM (not active)

Cc1cccc(Oc2nc3ccccn3c(=O)c2/C=C(\C#N)C(=O)NC2CCS(=O)(=O)C2)c1C (stereo unspecified)
EC50 [3]: 4.44 µM (active)
EC50 [4]: > 112 µM (not active)

Cc1ccc(S(=O)(=O)Nc2cccnc2)c(C)c1C
EC50 [7]: > 195 µM (not active)

CC1=NN(C(N)=S)C(C)(C)C1
EC50 [7]: > 195 µM (not active)

CN(C)c1ccc(/C=C2/C(=O)Nc3ccccc32)cc1
AC50 (Cytochrome P450 2C9): 39.8 µM (inconclusive)

CCOc1ccc2c(c1)c1nnc(SCC3CCCO3)nc1n2C (stereo unspecified)
CC50 [11]: > 50 µM (active)
EC50 (cells [1]): 52.4 µM (active)
EC50 (cells [2]): > 350 µM (not active)

COC(=O)Cc1ccc(NC(S)=NC(C)(C)C)cc1
EC50 (cells [1]): > 350 µM (not active)
EC50 (cells [2]): > 350 µM (not active)

CN(C)/C=N/C(=O)c1cn(-c2ccc(F)cc2)c(=O)c2ccccc12
EC50 (cells [1]): > 350 µM (not active)
EC50 (cells [2]): > 350 µM (not active)

Cc1c(O)ccc(/C=N/Nc2ncccc2[N+](=O)[O-])c1O
EC50 [3]: 1.12 µM (active)
EC50 [4]: 0.176 µM (active)
EC50 [12]: > 260 µM (inconclusive)

C=CCn1c2ccccc2c2nnc(SCC(=O)O)nc21
EC50 [7]: > 195 µM (not active)

Source: ChEMBL document CHEMBL1201862, “PubChem BioAssay data set” (2004)
